Assays:
[1] = tested on: male Sprague Dawley rats; experiment: Pro-convulsant testing, acute treatment, PTZ infusion; assay type: in vivo, rat; conditions: 10.0 mg/kg IP 30 min prior to PTZ infusion; post hoc tests
Method: Sixty naive male Sprague Dawley rats (225-265 g) housed in groups of four with food and water freely available, served as subjects. The rats were assigned to one of six groups and given: Vehicle or 0.5, 1.0, 2.0, 4.0 mg/kg of […] or 10.0 mg/kg of the non-selective receptor inverse agonist, CGS 8216, a known pro-convulsant agent. Vehicle, FG 8094 or CGS 8216 was administered IP 30 min prior to an infusion of the convulsant, pentylenetetrazole (PTZ, 40 mg/ml). PTZ was infused into the tail vein of the rat at the rate of 1.0 ml/min. The latency to clonic and tonic seizure were recorded and the threshold to each was calculated using the equation: Threshold dose=infusion rate (ml/s)×PTZ (mg/ml)×(1000/rats weight)×latency(s).

[2] = tested on: α1 and α5-containing receptors; conditions: cited from earlier work
[3] = target: T1, α3β3γ2 (Homo sapiens, UniProt P18507+P34903); experiment: Radioligand binding, membranes of stably transfected cells; conditions: [3H]Ro 15-1788 at twice Kd; mean±SEM, 3-6 determinations; read-out: Ki α3β3γ2
T1 construct: expressed in transfected cells
T1 sequence (P34903 29-492): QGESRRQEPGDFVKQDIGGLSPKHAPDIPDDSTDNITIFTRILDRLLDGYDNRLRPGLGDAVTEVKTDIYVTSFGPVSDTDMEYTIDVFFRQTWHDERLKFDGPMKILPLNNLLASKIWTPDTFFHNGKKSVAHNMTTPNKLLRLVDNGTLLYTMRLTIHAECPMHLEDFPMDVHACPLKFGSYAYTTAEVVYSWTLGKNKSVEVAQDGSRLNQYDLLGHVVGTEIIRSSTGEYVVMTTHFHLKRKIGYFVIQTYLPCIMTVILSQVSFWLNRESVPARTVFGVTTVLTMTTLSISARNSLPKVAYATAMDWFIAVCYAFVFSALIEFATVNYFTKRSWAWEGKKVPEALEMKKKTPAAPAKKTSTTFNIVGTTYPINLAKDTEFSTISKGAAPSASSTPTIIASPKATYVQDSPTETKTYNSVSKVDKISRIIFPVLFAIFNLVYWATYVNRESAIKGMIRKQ
T1 sequence (P28472 26-473 partner): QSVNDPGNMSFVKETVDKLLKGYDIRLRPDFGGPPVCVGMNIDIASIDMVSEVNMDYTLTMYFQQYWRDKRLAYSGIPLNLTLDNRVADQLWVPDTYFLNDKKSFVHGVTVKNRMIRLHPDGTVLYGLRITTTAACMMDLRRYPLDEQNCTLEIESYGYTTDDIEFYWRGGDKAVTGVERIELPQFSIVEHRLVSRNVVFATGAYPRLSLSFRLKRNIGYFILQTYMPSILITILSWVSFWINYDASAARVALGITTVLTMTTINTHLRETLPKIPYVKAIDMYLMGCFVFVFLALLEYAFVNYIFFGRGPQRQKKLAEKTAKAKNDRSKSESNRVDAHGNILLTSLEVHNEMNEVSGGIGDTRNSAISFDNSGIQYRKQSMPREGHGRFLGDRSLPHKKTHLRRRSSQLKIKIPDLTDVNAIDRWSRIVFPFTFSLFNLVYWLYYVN
T1 sequence (P18507 40-467 isoform P18507-1 limits assumed): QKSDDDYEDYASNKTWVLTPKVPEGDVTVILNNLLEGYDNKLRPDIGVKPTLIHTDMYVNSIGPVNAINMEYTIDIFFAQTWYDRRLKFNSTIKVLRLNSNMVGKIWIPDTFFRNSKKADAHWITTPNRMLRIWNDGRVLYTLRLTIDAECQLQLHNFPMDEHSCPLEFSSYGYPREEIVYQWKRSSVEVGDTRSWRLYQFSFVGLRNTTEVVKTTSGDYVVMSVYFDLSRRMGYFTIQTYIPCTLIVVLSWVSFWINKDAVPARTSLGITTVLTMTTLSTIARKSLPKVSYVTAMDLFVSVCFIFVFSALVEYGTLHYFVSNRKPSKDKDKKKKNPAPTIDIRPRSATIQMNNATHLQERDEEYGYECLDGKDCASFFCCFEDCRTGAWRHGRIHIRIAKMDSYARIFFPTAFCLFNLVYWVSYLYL

[4] = target: T2, α5β3γ2 (Homo sapiens, UniProt P18507+P31644); experiment: as above; conditions: [3H]Ro 15-1788 at twice Kd; mean±SEM, 3-6 determinations; read-out: Ki α5β3γ2
T2 construct: expressed in transfected cells
T2 sequence (P31644 32-462): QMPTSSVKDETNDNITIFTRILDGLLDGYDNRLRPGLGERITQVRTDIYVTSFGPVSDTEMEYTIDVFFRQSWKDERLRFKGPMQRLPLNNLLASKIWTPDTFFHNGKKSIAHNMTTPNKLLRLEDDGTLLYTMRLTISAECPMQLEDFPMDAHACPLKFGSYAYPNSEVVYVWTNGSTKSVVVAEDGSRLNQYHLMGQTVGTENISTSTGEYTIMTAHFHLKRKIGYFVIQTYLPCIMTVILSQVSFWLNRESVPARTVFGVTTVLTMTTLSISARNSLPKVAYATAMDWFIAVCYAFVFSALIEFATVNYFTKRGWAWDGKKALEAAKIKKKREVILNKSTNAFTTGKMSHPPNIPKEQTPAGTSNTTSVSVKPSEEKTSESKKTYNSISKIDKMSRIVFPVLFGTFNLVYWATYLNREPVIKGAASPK
T2 sequence (P28472 26-473 partner): as the sequence (P28472 26-473 partner) above
T2 sequence (P18507 40-467 isoform P18507-1 limits assumed): as the sequence (P18507 40-467 isoform P18507-1 limits assumed) above

[5] = target: T3, α6β3γ2 (Homo sapiens, UniProt P18507+Q16445); experiment: as above; conditions: [3H]Ro 15-4513 as radioligand; mean±SEM, 3-6 determinations; read-out: Ki α6β3γ2
T3 construct: expressed in transfected cells
T3 sequence (Q16445 20-453): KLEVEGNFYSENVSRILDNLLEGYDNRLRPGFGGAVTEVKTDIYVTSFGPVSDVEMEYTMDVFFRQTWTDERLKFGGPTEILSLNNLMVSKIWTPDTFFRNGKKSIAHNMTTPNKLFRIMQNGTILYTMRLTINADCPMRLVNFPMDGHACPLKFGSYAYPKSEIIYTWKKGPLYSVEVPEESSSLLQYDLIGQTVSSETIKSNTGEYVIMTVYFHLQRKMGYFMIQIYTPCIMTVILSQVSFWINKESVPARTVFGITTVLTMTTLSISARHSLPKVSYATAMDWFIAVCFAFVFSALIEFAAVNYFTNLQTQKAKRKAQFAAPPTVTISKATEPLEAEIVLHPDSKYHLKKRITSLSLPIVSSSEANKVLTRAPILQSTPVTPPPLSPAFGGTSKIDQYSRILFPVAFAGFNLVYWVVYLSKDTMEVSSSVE
T3 sequence (P28472 26-473 partner): as the sequence (P28472 26-473 partner) above
T3 sequence (P18507 40-467 isoform P18507-1 limits assumed): as the sequence (P18507 40-467 isoform P18507-1 limits assumed) above

[6] = in vivo; cited from earlier work

## O=C1C2C=Nc3ccccc3C2=NN1c1ccccc1 (stereo not shown) [CGS 8216, reference compound]
[1]
  threshold dose of PTZ to tonic seizures: significantly lowered the threshold doses to tonic seizures

## Cc1nnc2ccc(-c3cccc(C(F)(F)F)c3)nn12 [CL 218,872]
[2]
  relative affinity α1 versus α5-containing receptors: greater anfinity for α1 than for α5-containing receptors

## CCOC(=O)c1ncn2c1CN(C)C(=O)c1cc(N=[N+]=[N-])ccc1-2 [Ro 15-4513, reference compound]
[3]
  Ki: 1.28 ± 0.06 nM
[4]
  Ki: 0.24 ± 0.05 nM
[5]
  Ki: 6.5 ± 0.6 nM

## Cc1ccc(-c2nc3ccc(C)cn3c2CC(=O)N(C)C)cc1 [zolpidem]
[2]
  relative affinity α1 versus α5-containing receptors: greater anfinity for α1 than for α5-containing receptors

## COC(=O)c1cc2c(cn1)[nH]c1ccccc12 [β-CCM]
[6]
  spatial learning in the Morris watermaze: enhanced spatial learning

— patent publication US6426343B1, “Preparation and use of a specific GABA-Aα5 receptor ligand for treatment of Alzheimer's disease” (Merck Sharp & Dohme Ltd., priority 1995, dated 2002)
